Data reported in the NIST ThermoML archive (doi:10.1016/j.tca.2016.07.005).

How the values were obtained:
[1] = xn = mol fraction of the nth substance listed; settings: 101.3 kPa, Liquid, x1 = 1; for viscosity: Concentric cylinders viscometry; for mass density: Vibrating tube method
[2] = 101.3 kPa, Liquid; for viscosity: Concentric cylinders viscometry; for mass density: Vibrating tube method

OCC(O)CO [glycerol] + O=S1(=O)CCCC1
[1]
Settings | mass density [kg/m3] | viscosity [mPa·s]
313.15 K | 1249 | 303
323.15 K | 1242.4 | 139.3
333.15 K | 1235.7 | 85.5
343.15 K | 1228.9 | 50.5
353.15 K | 1221.9 | 31.2
363.15 K | 1214.8 | 19.9

OCC(O)CO [glycerol]
[2]
Settings | mass density [kg/m3] | viscosity [mPa·s]
313.15 K | 1249 | 303
323.15 K | 1242.4 | 139.3
333.15 K | 1235.7 | 85.5
343.15 K | 1228.9 | 50.5
353.15 K | 1221.9 | 31.2
363.15 K | 1214.8 | 19.9

O=S1(=O)CCCC1 [sulfolane]
[2]
Settings | mass density [kg/m3] | viscosity [mPa·s]
298.15 K | 1266.4 | 11.9
303.15 K | 1259.4 | 10.5
313.15 K | 1251.7 | 8.1
323.15 K | 1244 | 6.4
333.15 K | 1235.4 | 5.2
343.15 K | 1225 | 4.3
353.15 K | 1215 | 3.7
363.15 K | 1206 | 3.2

CCCC[n+]1ccn(C)c1.O=S(=O)([N-]S(=O)(=O)C(F)(F)F)C(F)(F)F
[2]
Settings | mass density [kg/m3] | viscosity [mPa·s]
293.15 K | 1441.2 | 64
298.15 K | 1436.4 | 49.5
303.15 K | 1431.5 | 39
313.15 K | 1421.9 | 26.7
323.15 K | 1412.4 | 20.1
333.15 K | 1402.9 | 15.5
343.15 K | 1393.5 | 12.4

CCCC[n+]1ccn(C)c1.O=S(=O)([N-]S(=O)(=O)C(F)(F)F)C(F)(F)F + O=S1(=O)CCCC1
[1]
Settings | mass density [kg/m3] | viscosity [mPa·s]
293.15 K | 1441.2 | 64
298.15 K | 1436.4 | 49.5
303.15 K | 1431.5 | 39
313.15 K | 1421.9 | 26.7
323.15 K | 1412.4 | 20.1
333.15 K | 1402.9 | 15.5
343.15 K | 1393.5 | 12.4
